Activity calls are given as the source filed them.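 The calls were made as follows: active = compounds giving half or more protection of infected cells from virus-caused growth loss, again on retest; inactive = the rest.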 *1 amine or outer side, *2 acyl side, *3 side chain or, on linkers, in order; H or OH if unused. Where a SMILES comes first, the peptide text is derived from it. [ ]: non-standard residue; d: D form. The star is where a group is joined. X3 = CC(=O)N(C)SCC(N[*:1])C(=O)[*:2]; Fmoc = O=C(OCC1c2ccccc2-c2ccccc21)*; For = O=C*
Tested on: CEM cells HIV-1 protection, formazan growth assay
Experiment: NCI AIDS Antiviral Assay
Settings: for IC50: measured here: growth of uninfected CEM cells
Procedure, shortened: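 Protection of CEM cells against HIV-1 was scored from cell growth (soluble formazan) across five concentrations, with parallel uninfected cells. Lack of protection may reflect toxicity.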

Row | SMILES | EC50 [µM] | IC50 [µM] | outcome
1 | CSC12c3cc(C)n(-c4ccc(I)cc4)c3CC(C)(C)CN1C(=O)C2Oc1ccccc1 (stereo not given) | > 200 | 75.9 | 
2 | C/C(=N\O)[C@H]1CC[C@H]2[C@@H]3CCC4=C/C(=N/O)CC[C@]4(C)[C@H]3C(=O)C[C@]12C | > 200 | 39.8 | 
3 | O=C1CCN2CCC(=O)c3cccc1c32 |  |  | inactive
4 | COC(=O)[C@H](Cc1ccccc1)NC(=O)N1CCN(C(=O)N[C@@H](Cc2ccccc2)C(=O)OC)CCN(C(=O)N[C@@H](Cc2ccccc2)C(=O)OC)CC1 | > 200 | > 200 | 
5 | CC(=O)N(C)SCC(NC(=O)C(Cc1ccccc1)NC(=O)OCC1c2ccccc2-c2ccccc21)C(=O)NC(Cc1ccccc1)C(=O)NC(Cc1cn(C=O)c2ccccc12)C(=O)NC(CCCCNC(=O)OCC1c2ccccc2-c2ccccc21)C(=O)NC(C(=O)NC(CSN(C)C(C)=O)C(=O)NC(C(N)=O)C(C)O)C(C)O (stereo not given) (Fmoc-F[X3]FW(For)K(Fmoc)T[X3]T-NH2; configuration not given here) | > 100 | 79.4 | 
6 | O=C1C2CN(Cc3ccccc3)CC1CN(CC1CC1)C2 | > 240 | > 240 | 
7 | CN(C)c1ncnc2c1ncn2C1OC(CO)CC1F (stereo not given) | 141 | 178 | 
8 | CCCc1cc(=O)oc2c3c(cc(OC(C)C)c12)O[C@H](C)[C@@H](C)C3=O | 77.6 | 120 | 
9 | C=CCNC(=S)/N=C1\N=S(C)(=O)c2ccccc21 (stereo not given) | > 891 | > 891 | 
10 | COc1cc2ccc3c4ccccc4cnc3c2cc1OC | > 89.1 | > 89.1 | 
11 | O=S1(=O)OC(c2ccc(O)c(Cl)c2)(c2ccc(O)c(Cl)c2)c2ccccc21 |  |  | inactive
12 | O/N=C1\C(=C\c2ccc3c(c2)OCCO3)CCCC1C(NO)c1ccc2c(c1)OCCO2 (stereo not given) | > 16.6 | > 16.6 | 
13 | O=C(O)CCCCCCC(=O)O | > 1450 | > 1450 | 
14 | Cc1ccc(C2CC(c3ccc([N+](=O)[O-])cc3)=Nc3ccccc3S2)cc1 (stereo not given) | > 13.8 | 7.76 | 
15 | C[C@]1(CI)OC(=O)N2CCC[C@H]21 | > 891 | > 891 | 
16 | C1CSCCCSCCCSCCCSCCCSC1 | > 14.1 | > 14.1 | 
17 | CC(=O)OC1CC2C(C)(CCC3C2(C)CCC2(C)C4CC(C)(C)CCC4(C)CCC32C)C1C (stereo not given) | > 200 | 145 | 
18 | COc1ccc(/C=C/c2nc(=S)[nH][nH]2)cc1 | > 214 | > 214 | 
19 | O=C1OC(Cc2ccccc2)(N2CCCC2=O)C1c1ccccc1 (stereo not given) | > 112 | > 112 | 
20 | CC(C)c1cccc(C(C)C)c1NC(=O)CCC(=O)NN | > 324 | > 324 | 
21 | Cc1nnc2sc(=S)[nH]n12 |  |  | inactive
22 | CC1=NN(C(=O)c2ccccc2O)C(=O)/C1=C/c1ccco1 | > 87.1 | 0.603 | 

Row | SMILES | EC50 [µM] | IC50 [µM] | outcome
23 | CCCc1c[nH]c(-c2ccc(-c3cc(CCC)c(C=O)[nH]3)s2)c1 | > 11.5 | > 11.5 | 
24 | O=C1CC(CC(O)[C@@H]2CCCC[C@@H]2O)CC(=O)N1c1ccccc1 (stereo not given in full) | > 200 | > 200 | 
25 | O=C(CNc1cccc(Cl)c1)Nn1c(-c2ccccc2)nc2ccccc2c1=O | > 200 | 2.75 | 
26 | C=CCCCC[P+](c1ccccc1)(c1ccccc1)c1ccccc1 | > 20 | 1.45 | 
27 | CC1=C(/C=C/C(C)=C/C=C/C(C)=C/C=O)C(C)(C)CCC1 |  |  | inactive
28 | Cc1cc(NS(=O)(=O)c2ccc(NC(=O)c3ccc(Cl)c4c(Nc5ccc(S(N)(=O)=O)cc5)c5ccccc5nc34)cc2)no1 | > 38.9 | 26.3 | 
29 | CC(=NNC(=S)Nc1ccccc1C)c1cccc(C(C)=NNC(=S)Nc2ccccc2C)n1 | > 200 | 110 | 
30 | c1cc(-c2ncc(-c3ccc4c(c3)CCCO4)o2)ccn1 | > 200 | 11.2 | 
31 | N#Cc1c(N=C2CCCCC2)c(C(=O)Nc2ccccc2)n2c1CCC2 | > 100 | > 100 | 
32 | C[n+]1ccccc1/C=N/O | > 200 | > 200 | 
33 | Cc1cn(COCCSCc2ccccc2)c(=O)[nH]c1=O | 58.9 | > 200 | 
34 | O=c1c2ccccc2nc(-c2ccccc2)n1NCC1(O)OCC(O)C(O)C1O (stereo not given) |  |  | inactive
35 | CC1=CC(c2ccccc2)n2c(nc3cc4ccccc4cc32)N1 (stereo not given) | > 200 | > 200 | 
36 | ONC1=Nc2ccccc2C(=S)N2CSCC12 (stereo not given) | > 200 | > 200 | 
37 | CC(C)(C)OC(=O)NC(Cc1ccc(O)cn1)C(N)=O (stereo not given) | > 200 | > 200 | 
38 | CCCCCCCCOC(=O)CC(C(=O)OCCCCCCCC)S(=O)(=O)O (stereo not given) | > 200 | 117 | 
39 | Cc1ccc(C2(O)c3ccccc3C(=O)N(C)C2(O)c2ccc(C)cc2)cc1 (stereo not given) | > 200 | 12.9 | 
40 | O=C1C[C@H]2[C@H](c3ccc(Br)cc3)[C@H]3C(=O)c4ccccc4NC(=O)[C@@H]3[C@@]2(O)c2ccccc2N1 | > 200 | 77.6 | 
41 | COC1(OC)CC2C(=O)CCCC21OC(C)=O (stereo not given) | > 1020 | 22.4 | 
42 | N#C/C(C(=O)NCc1ccccc1)=C(/N)N1CCCC1 | > 200 | > 200 | 
43 | COc1ccc2nc3cccc([N+](=O)[O-])c3c(NCCC(=O)O)c2c1 | > 200 | 4.57 | 
44 | N#C/C(=C\c1ccccc1)C(NO)Nc1ccccc1 (stereo not given) | > 135 | 64.6 | 

Row | SMILES | EC50 [µM] | IC50 [µM] | outcome
45 | CC1(C)COC(c2cccc(C3=NC(C)(C)CO3)c2Br)=N1 | > 200 | 151 | 
46 | CC(C)(C)CC1=CC(=C2C=C(CC(C)(C)C)C(=O)C(CC(C)(C)C)=C2)C=C(CC(C)(C)C)C1=O | > 15.5 | > 15.5 | 
47 | Cc1ccccc1[B-]12OCC[N+]1(CNC(=O)C1=C(O)C3(O)C(=O)C4=C(O)c5c(O)cccc5C(C)(O)C4CC3C(N(C)C)C1=O)CCO2 (stereo not given) | > 53.7 | > 53.7 | 
48 | O=C(Nc1ccc(F)cc1)C(=O)C(C1OC(=O)c2ccccc21)[N+](=O)[O-] (stereo not given) | > 692 | 355 | 
49 | Cc1cc2c3c(c1)C(=O)CCN3CCC2=O |  |  | inactive
50 | COc1cccc2c(=O)oc(-c3ccccc3C)nc12 | > 200 | 45.7 | 
51 | FC(F)(F)C1(c2ccccc2)SCc2nc3ccccc3n21 (stereo not given) | 77.6 | 105 | 
52 | CCOC(=O)N1CCN(C(=O)Nc2cccc3ccccc23)CC1 |  |  | inactive
53 | CCn1c2ccccc2c2cc(N=Nc3ccc(C#N)cc3)ccc21 | 10.7 | > 200 | 
54 | CC1C[C@H](C)CC(C(O)CC2CC(=O)N(Cc3ccccc3)C(=O)C2)C1O (stereo not given in full) | > 200 | > 200 | 
55 | ClC(Cl)(Cl)C1OCOC(C(Cl)(Cl)Cl)OCO1 (stereo not given) | > 200 | > 200 | 
56 | COC1=C(C)C(=O)c2nc(Cl)ccc2C1=O |  |  | inactive
57 | CC#CCCCC1(C)CCCNC1=S (stereo not given) | > 200 | > 200 | 
58 | O=P(N1CC1)(N1CC1)N1CCN(P(=O)(N2CC2)N2CC2)CC1 | > 200 | 2.24 | 
59 | O=C(O)c1ccc(CSc2ccccc2)c([N+](=O)[O-])c1 | > 631 | 245 | 
60 | O=C([CH-]C(=O)c1ccccc1)c1ccccc1.[CH3-].[CH3-].[CH3-].[Sn+4] | > 35.5 | > 35.5 | 
61 | O=c1[nH]c(=O)n(C2CC(O)C(CO)O2)cc1COCC(F)(F)F (stereo not given) | > 251 | > 251 | 
62 | Cc1cccc([B-]23OCC[N+]2(CNC(=O)C2=C(O)C4(O)C(=O)C5=C(O)c6c(O)cccc6C(C)(O)C5CC4C(N(C)C)C2=O)CCO3)c1 (stereo not given) | > 38.9 | > 38.9 | 
63 | CCOC(=O)CCC(NC(=O)c1ccc(Oc2nc3ccc(C(F)(F)F)cc3nc2-c2ccccc2)cc1)C(=O)OCC (stereo not given) | > 200 | 195 | 
64 | CC(O)(C(=O)N(O)c1ccc(Cl)cc1)c1ccc(Cl)cc1 (stereo not given) | > 20 | 17.8 | 
65 | CC(C)C(=O)OCC1OC(n2c(Br)nc3c(=O)[nH]c(N)nc32)C(OC(=O)C(C)C)C1OC(=O)C(C)C (stereo not given) | > 200 | 91.2 | 
66 | CCN(CC)c1c([N+](=O)[O-])c(=O)nc2ccccn12 | > 200 | 105 | 

Row | SMILES | EC50 [µM] | IC50 [µM] | outcome
67 | COc1ccc(-c2cc(-c3ccc(C)cc3)n(C3OC(COC(C)=O)C(OC(C)=O)C(OC(C)=O)C3OC(C)=O)c(=S)c2C#N)cc1 (stereo not given) | > 200 | > 200 | 
68 | CCOC(=O)C(C(=O)OCC)C(C(=O)OCC)(C(=O)OCC)C(C(=O)OCC)C(=O)OCC |  |  | inactive
69 | CCCCCCCCCCCCCCC1OC(=O)c2ccccc21 (stereo not given) |  |  | inactive
70 | N#C/C(=C\c1ccc(O)c(O)c1)C(N)=O | > 25.1 | 10.5 | 
71 | Clc1cc(Cl)c2n[se]nc2c1 |  |  | inactive
72 | O=C1Oc2cc3c(c4cccc1c24)OCN(c1ccccc1)C3 | > 33.1 | 24.5 | 
73 | CC(=O)N1C=Cc2c(c(C)c3c([nH]c4ccccc43)c2C)C1 | > 200 | 0.158 | 
74 | CC(C)(C)[C@H]1CO[C@]2(C)[C@@H]3C[C@@H]3C(=O)N12 |  |  | inactive
75 | S=C(c1c[nH]c2ccccc12)N1CCN(Cc2ccccc2)CC1 | > 200 | 37.2 | 
76 | O=NN1C(c2ccccc2)C2CCCC(C2=O)C1c1ccccc1 (stereo not given) | > 58.9 | > 58.9 | 
77 | O=S(=O)(O)OC1CCCC1S(=O)(=O)O (stereo not given) | > 200 | > 200 | 
78 | O=C1c2cccc3cccc(c23)C(=O)N1CCCCCCCCN1C(=O)c2cccc3cccc(c23)C1=O | > 200 | 14.8 | 
79 | Cc1cc2nc(N)n[n+]([O-])c2cc1C | > 200 | > 200 | 
80 | CCCCCCCCC1C(C)c2c([nH]c3ccccc23)C2C(=O)N(c3ccccc3)C(=O)C21 (stereo not given) |  |  | inactive
81 | CN1CCc2c(sc3nc(Nc4ccccc4)n(N)c(=O)c23)C1 | > 200 | 93.3 | 
82 | CCOC(=O)C(C)(c1c(C)[nH]c2ccccc12)c1c(C)[nH]c2ccccc12 |  |  | inactive
83 | [O]=[Sb][c]1ccc(Br)cc1 | > 200 | 4.57 | 
84 | CSc1nc(NC(=O)c2ccc([N+](=O)[O-])cc2)c(C(=O)NC(C)C)s1 | > 200 | 138 | 
85 | CCCNCC(O)COc1ccc2c3c(c(=O)oc2c1)CCC3 (stereo not given) | > 200 | 87.1 | 
86 | CCCCCCCCSc1ncnc2[nH]ncc12 | > 79.4 | 8.51 | 
87 | COC(=O)C(C(=O)C(=O)Nc1ccc(Br)cc1)c1nc2ccc(Cl)cc2[nH]c1=O (stereo not given) | > 75.9 | 4.07 | 
